Assay results published in patent US5576311A, “Cyclodextrins as suspending agents for pharmaceutical suspensions” (Pharmos Corporation, priority 1994, dated 1996).
Values after ≈ are worked out from the molar mass of the structure shown. Like-named read-outs stand apart in the source and are kept apart here.

How the values were obtained:
glucocorticoid receptors = conditions: cited from earlier work
[1] = Method D: solubilization of LE by cyclodextrins, HPLC before and after centrifugation; format: physicochemical
Description: To evaluate solubilization of drugs such as LE by cyclodextrins, LE is continuously mixed with cyclodextrins in various concentrations in water for one week at room temperature. Samples of the resulting suspensions and the soluble fractions of LE are analyzed by high pressure liquid chromatography ("HPLC") before and after centrifugation at 5000 G, respectively (hereinafter referred to as "Method D"). The concentrations of LE are calculated from the area under the curve of the LE peak using known techniques.

[2] = Stability of aqueous suspensions of LE with buffering systems or ionic tonicity agents; format: physicochemical; conditions: accepted buffering systems or ionic tonicity agents
[3] = HPLC measurement of concentration of LE in cyclodextrin suspensions after storage; format: physicochemical
[4] = in vivo; cited from earlier work
[5] = in vivo; cited from earlier work; remark: listed apart in the source
[6] = 25° C.; cited from earlier work

## CCOC(=O)OC1(C(=O)O)CCC2C3CCC4=CC(=O)C=CC4(C)C3C(O)CC21C (stereo not drawn) [PJ-91]
Glucocorticoid receptors
  binding to glucocorticoid receptors: does not bind to glucocorticoid receptors

## CCOC(=O)O[C@]1(C(=O)OCCl)CC[C@H]2[C@@H]3CCC4=CC(=O)C=C[C@]4(C)[C@H]3[C@@H](O)C[C@@]21C [LE, loteprednol etabonate]
[1]; water with 0.5% hpcd, 0.5% HPCD, water, one week, room temperature, read-out: LE Solubilized
  solubility at 168 h: 7 µg/mL (≈ 15 µM)
[1]; water with 1.0% bcd, 1.0% BCD, water, one week, room temperature, read-out: LE Solubilized
  solubility at 168 h: 10 µg/mL (≈ 21.4 µM)
[1]; water with 1.0% hecd, 1.0% HECD, water, one week, room temperature, read-out: LE Solubilized
  solubility at 168 h: 10 µg/mL (≈ 21.4 µM)
[1]; water with 1.0% hpcd, 1.0% HPCD, water, one week, room temperature, read-out: LE Solubilized
  solubility at 168 h: 5 µg/mL (≈ 10.7 µM)
[1]; water with cyclodextrin, all cyclodextrins of Table 3, read-out: LE solubilized by cyclodextrins
  solubility at 168 h: ≤ 10 µg/mL
[2]
  obtaining stable aqueous suspensions: cannot be obtained
[3]; 5 mg/ml label, BCD 1%, 23 C, 4.0 mos, 172800 min
  [LE] measurement (% of label): 106.78 % of label
[3]; 5 mg/ml label, HECD 1%, 23 C, 4.0 mos, 172800 min
  [LE] measurement (% of label): 104.26 % of label
[3]; 5 mg/ml label, HPCD 0.5%, 23 C, 5.0 mos, 216000 min
  [LE] measurement (% of label): 101.12 % of label
[3]; 5 mg/ml label, HPCD 1%, 23 C, 0.5 mos, 21600 min
  [LE] measurement (% of label): 94.3 % of label
[3]; 5 mg/ml label, HPCD 1%, 23 C, 5.0 mos, 216000 min
  [LE] measurement (% of label): 115.45 % of label
[3]; 5 mg/ml label, HPCD 1%, 37 C, 2.0 mos, 86400 min
  [LE] measurement (% of label): 104.04 % of label
[3]; 5 mg/ml label, HPCD 1%, 45 C, 2.0 mos, 86400 min
  [LE] measurement (% of label): 96.84 % of label
[3]; 10 mg/ml label, BCD 1%, 23 C, 4.0 mos, 172800 min
  [LE] measurement (% of label): 105.7 % of label
[3]; 10 mg/ml label, HECD 1%, 23 C, 4.0 mos, 172800 min
  [LE] measurement (% of label): 135.88 % of label
[3]; 10 mg/ml label, HPCD 0.5%, 23 C, 5.0 mos, 216000 min
  [LE] measurement (% of label): 109.09 % of label
[3]; 10 mg/ml label, HPCD 1%, 23 C, 0.5 mos, 21600 min
  [LE] measurement (% of label): 88.18 % of label
[3]; 10 mg/ml label, HPCD 1%, 23 C, 5.0 mos, 216000 min
  [LE] measurement (% of label): 110.23 % of label
[3]; Table 4 storage
  concentration of LE in the suspension (in words): not significantly altered
[4]
  efficacy relative to prednisolone acetate: efficacy similar to its parent compound, namely, prednisolone acetate
  ocular anti-inflammatory activity: has ocular anti-inflammatory activity
[5]
  risk of steroid induced cataracts and elevation of intra-ocular pressure: reducing the risk of steroid induced cataracts and elevation of intra-ocular pressure

## OC[C@H]1O[C@@H]2O[C@H]3[C@H](O)[C@@H](O)[C@@H](O[C@H]4[C@H](O)[C@@H](O)[C@@H](O[C@H]5[C@H](O)[C@@H](O)[C@@H](O[C@H]6[C@H](O)[C@@H](O)[C@@H](O[C@H]7[C@H](O)[C@@H](O)[C@@H](O[C@H]8[C@H](O)[C@@H](O)[C@@H](O[C@H]1[C@H](O)[C@H]2O)O[C@@H]8CO)O[C@@H]7CO)O[C@@H]6CO)O[C@@H]5CO)O[C@@H]4CO)O[C@@H]3CO [β-Cyclodextrin, β-cyclodextrin]
[6]
  aqueous solubility: about 1.8 % w/v
